Test results: paper PMC5562778 (Archives of Toxicology, 2017)

Key:
[1] = design: method as in Van Den Berg et al. [2011]; details: lower confidence bound of the Benchmark Dose giving 10% extra cancer incidence; ref Van Den Berg et al. [2011]; cited from earlier work
[2] = target: T1, CYP 1A2 (Homo sapiens, UniProt P05177); details: pH 7.4
T1 sequence (P05177 1-516): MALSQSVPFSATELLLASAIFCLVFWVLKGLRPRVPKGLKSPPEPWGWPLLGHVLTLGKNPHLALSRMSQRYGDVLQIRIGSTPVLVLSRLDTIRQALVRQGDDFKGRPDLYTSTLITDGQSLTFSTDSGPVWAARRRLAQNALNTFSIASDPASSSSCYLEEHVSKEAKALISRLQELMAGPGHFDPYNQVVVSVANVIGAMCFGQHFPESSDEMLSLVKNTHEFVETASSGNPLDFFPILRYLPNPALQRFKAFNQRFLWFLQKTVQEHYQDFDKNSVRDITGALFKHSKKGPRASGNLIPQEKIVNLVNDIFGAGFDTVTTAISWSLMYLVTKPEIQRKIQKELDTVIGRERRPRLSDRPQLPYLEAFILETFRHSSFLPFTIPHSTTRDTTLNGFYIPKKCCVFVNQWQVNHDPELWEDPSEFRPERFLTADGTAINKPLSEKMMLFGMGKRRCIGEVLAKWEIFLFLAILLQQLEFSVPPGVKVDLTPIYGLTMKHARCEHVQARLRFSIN
Method: The quality of the Chinese and Caucasian liver microsomes was checked by measuring the activity of CYP1A2 and CYP2A6 by the method of Yang et al. ([2012]). The quality of Chinese and Caucasian liver S9 samples was checked by measuring the SULT activity based on the method provided by Wang et al. ([2006]). The details of the methods for the microsomal and S9 in vitro incubations and UPLC analysis for assessing the metabolic capabilities of CYP and SULT enzymes can be found in the supporting materials 1.
The quality of the Chinese and Caucasian liver microsomes was checked by measuring the activity of CYP 1A2 and CYP 2A6 by the method of Yang et al. (Yang et al. 2012). CYP 1A2 and CYP 2A6 are predominant enzymes for formation of 1'-hydroxyestragole (Jeurissen et al. 2007). The activity of CYP 1A2 was measured with the substrate phenacetin, and the activity of CYP 2A6 was checked using the substrate coumarin. […] The samples were centrifuged for 5 min at 16, 000g to precipitate microsomal proteins and analyzed by UPLC.
Before UPLC analysis, all samples were centrifuged for 5 min at 16, 000g to precipitate microsomal or cytosolic proteins. Supernatant of each sample was analyzed on UPLC using a BEH C18 (1.7 μm 2.1×50 mm) column with a guard column and a diode array detector (Acquity, Waters).

[3] = design: method as in Bartoli et al. [1996]; details: peak at 0.5–2 h; clearance within 7 h of administration; marker for CYP1A2 activity; ref Bartoli et al. [1996]; cited from earlier work
[4] = target: T1, CYP 1A2; details: cited from earlier work
[5] = PBK prediction; route not stated; ref Barter et al. [2013]; cited from earlier work
[6] = route not stated; ref Barter et al. [2013]; cited from earlier work

SMILES | BMDL10 [1] | Catalytic efficiency of CYP 1A2 mediated conversion, lower in Chinese than Caucasian liver microsomes ([2]; microsomes) [fold] | Catalytic efficiency (Vmax/Km), CYP 1A2 mediated O-deethylation [2] | Peak plasma concentrations and apparent oral clearance, Chinese versus Caucasian subjects [3] | Catalytic efficiency of CYP 1A2, lower for Chinese liver microsomes [4] [fold] | Catalytic efficiency for CYP 1A2 ([4]; microsomes) | Predicted clearance, lower in Chinese than in Caucasian subjects [5] [%] | Experimentally observed clearance, lower in Chinese individuals than in Caucasian volunteers [6] [%]
C=CCc1ccc(OC)cc1 [Estragole, 1-allyl-4-methoxybenzene] | 3.3–6.5 mg/kg bw/day | – | – | – | – | – | – | –
CCOc1ccc(NC(C)=O)cc1 [phenacetin] | – | 3 | 3.1 µl/min/(mg microsomal protein) | not differ | 2 | 0.6-51.4 µl/min/(mg microsomal protein) | 36 | 28
